The source made the active and inactive calls. The rule behind the calls is not given here.
Legend:
SH-SY5Y [1] = test: Cytotoxicity against H2O2 induced human neuroblastoma SH-SY5Y cells assessed as cell viability measured after 5 hrs by MTT assay; type: cell-based
SH-SY5Y [2] = test: Neuroprotective activity against H2O2-induced human SH-SY5Y cell damage assessed as protective rate at 50 uM pretreated for 1 hr followed by H2O2 addition measured after 4 hrs by MTT assay (reference value: 68.2 +/- 1.34%); type: functional; settings: time 5 hrs
SH-SY5Y [3] = test: Neuroprotective activity against H2O2-induced human SH-SY5Y cell death assessed as late apoptotic cells at 50 uM measured by Annexin V/PI double staining base flow cytometry analysis (reference value: 7.78%); type: functional, cell-based
SH-SY5Y [4] = test: Neuroprotective activity against H2O2-induced human SH-SY5Y cell death assessed as viable cells at 50 uM measured by Annexin V/PI double staining base flow cytometry analysis (reference value: 76.67%); type: functional; settings: read-out: Activity
SH-SY5Y [5] = test: Neuroprotective activity against H2O2-induced human SH-SY5Y cell death assessed as reversal of apoptosis at 50 uM pretreated for 1 hr followed by H2O2 addition measured after 4 hrs by Hoechst 33258 based fluorescence microscopy; type: functional; settings: time 5.0 hrs
SH-SY5Y [6] = test: Neuroprotective activity against H2O2-induced human SH-SY5Y cell death assessed as early apoptotic cells at 50 uM measured by Annexin V/PI double staining base flow cytometry analysis (reference value: 15.23%); type: functional, cell-based
SH-SY5Y [7] = test: Neuroprotective activity against H2O2-induced human SH-SY5Y cell apoptosis assessed as Bax protein expression at 50 uM measured by Western blot analysis relative to control; type: functional, cell-based
SH-SY5Y [8] = test: Neuroprotective activity against H2O2-induced human SH-SY5Y cell apoptosis assessed as Bcl-2 protein expression at 50 uM measured by Western blot analysis relative to control; type: functional, cell-based
SH-SY5Y [9] = test: Inhibition of ROS production in H2O2-induced human SH-SY5Y cells at 50 uM pretreated for 1 hr followed by H2O2 addition measured after 4 hrs by DCFH-DA based flow cytometry; type: functional, cell-based; settings: time 5.0 hrs
SH-SY5Y [10] = test: Neuroprotective activity against H2O2-induced human SH-SY5Y cell apoptosis assessed as caspase 3 protein expression at 50 uM measured by Western blot analysis relative to control; type: functional, cell-based
SH-SY5Y [11] = test: Neuroprotective activity against H2O2-induced human SH-SY5Y cell death assessed as necrotic cells at 50 uM measured by Annexin V/PI double staining base flow cytometry analysis (reference value: 0.32%); type: functional, cell-based
SH-SY5Y [12] = test: Neuroprotective activity against H2O2-induced human SH-SY5Y cell apoptosis assessed as PARP protein expression at 50 uM measured by Western blot analysis relative to control; type: functional, cell-based

| Compound | Activity (SH-SY5Y [1]) | Activity (SH-SY5Y [2]) [%] | also measured |
| --- | --- | --- | --- |
| CCN1C[C@]2(COC(=O)c3ccccc3NC(=O)c3ccccc3NC(=O)C(Cl)(Cl)Cl)CC[C@H](OC)C34C1C(C[C@@H]32)[C@@]1(O)C[C@H](OC)C2C[C@@H]4[C@@H]1[C@H]2O | Non-Toxic | 14.5 | – |
| CCN1C[C@]2(COC(=O)c3ccccc3NC(=O)c3ccccc3NC(=O)C(C)(O)CC)CC[C@H](OC)C34C1C(C[C@@H]32)[C@@]1(O)C[C@H](OC)C2C[C@@H]4[C@@H]1[C@H]2OC(C)=O (stereo partly specified) | Non-Toxic | 62.1 | – |
| CCO[C@]12C[C@H](OC)C3C[C@H]([C@@H]1[C@H]3O)C13C4C2C[C@@H]1[C@@](COC(=O)c1ccccc1NC(=O)c1ccccc1NC(=O)C(C)(C)O)(CC[C@@H]3OC)CN4CC | Non-Toxic | 58.6 | – |
| CCN1C[C@]2(COC(=O)c3ccccc3NC(=O)c3ccccc3NC(=O)C(C)Cl)CC[C@H](OC)C34C1C(C[C@@H]32)[C@@]1(O)C[C@H](OC)C2C[C@@H]4[C@@H]1[C@H]2O (stereo partly specified) | Non-Toxic | 2.2 | – |
| CCN1C[C@]2(COC(=O)c3ccccc3NC(=O)c3ccccc3NC(=O)C(C)(C)O)CC[C@H](OC)C34C1C(C[C@@H]32)[C@@]1(O)C[C@H](OC)C2C[C@@H]4[C@@H]1[C@H]2OC(=O)c1ccccc1NC(=O)c1ccccc1NC(=O)C(C)(C)O | Non-Toxic | 12.4 | – |
| CCN1C[C@]2(COC(=O)c3ccccc3NC(=O)c3ccccc3NC(=O)C(C)(C)O)CC[C@H](OC)C34C1C(C[C@@H]32)[C@@]1(O)C[C@H](OC)C2C[C@@H]4[C@@H]1[C@H]2OC(C)=O | Non-Toxic | 48.6 | – |
| CCN1C[C@]2(COC(=O)c3ccccc3NC(=O)c3ccccc3NC(=O)CC(C)C)CC[C@H](OC)C34C1C(C[C@@H]32)[C@@]1(O)C[C@H](OC)C2C[C@@H]4[C@@H]1[C@H]2OC(=O)c1ccccc1NC(=O)c1ccccc1NC(=O)CC(C)C | Non-Toxic | 13 | – |
| CCN1C[C@]2(COC(=O)c3ccccc3NC(=O)c3ccccc3NC(=O)C(C)C)CC[C@H](OC)C34C1C(C[C@@H]32)[C@@]1(O)C[C@H](OC)C2C[C@@H]4[C@@H]1[C@H]2OC(=O)c1ccccc1NC(=O)c1ccccc1NC(=O)C(C)C | Non-Toxic | 5.5 | – |
| CCN1C[C@]2(COC(=O)c3ccccc3NC(=O)c3ccccc3NC(C)=O)CC[C@H](OC)C34C1C(C[C@@H]32)[C@@]1(O)C[C@H](OC)C2C[C@@H]4[C@@H]1[C@H]2OC(=O)c1ccccc1NC(=O)c1ccccc1NC(C)=O | Non-Toxic | 19.9 | – |
| CCN1C[C@]2(COC(=O)c3ccccc3NC(=O)c3ccccc3NC(=O)C(C)(C)O)CC[C@H](OC)C34C1C(C[C@@H]32)[C@@]1(OC(C)=O)C[C@H](OC)C2C[C@@H]4[C@@H]1[C@H]2OC(C)=O | Non-Toxic | 54.2 | – |
| CCN1C[C@]2(COC(=O)c3ccccc3NC(=O)c3ccccc3NC(=O)c3ccccc3)CC[C@H](OC)C34C1C(C[C@@H]32)[C@@]1(O)C[C@H](OC)C2C[C@@H]4[C@@H]1[C@H]2OC(=O)c1ccccc1NC(=O)c1ccccc1NC(=O)c1ccccc1 | Non-Toxic | 10.8 | – |
| CCCC(=O)Nc1ccccc1C(=O)Nc1ccccc1C(=O)OC[C@@]12CC[C@H](OC)C34C(C(C[C@@H]31)[C@@]1(O)C[C@H](OC)C3C[C@@H]4[C@@H]1[C@H]3OC(=O)c1ccccc1NC(=O)c1ccccc1NC(=O)CCC)N(CC)C2 | Non-Toxic | 21.3 | – |
| CCCCC(CC)C(=O)Nc1ccccc1C(=O)Nc1ccccc1C(=O)OC[C@@]12CC[C@H](OC)C34C(C(C[C@@H]31)[C@@]1(O)C[C@H](OC)C3C[C@@H]4[C@@H]1[C@H]3O)N(CC)C2 (stereo partly specified) | Non-Toxic | 6.5 | – |
| CCCCC(=O)Nc1ccccc1C(=O)Nc1ccccc1C(=O)OC[C@@]12CC[C@H](OC)C34C(C(C[C@@H]31)[C@@]1(O)C[C@H](OC)C3C[C@@H]4[C@@H]1[C@H]3O)N(CC)C2 | Non-Toxic | 11.7 | – |
| CCCCCC(=O)Nc1ccccc1C(=O)Nc1ccccc1C(=O)OC[C@@]12CC[C@H](OC)C34C(C(C[C@@H]31)[C@@]1(O)C[C@H](OC)C3C[C@@H]4[C@@H]1[C@H]3O)N(CC)C2 | Non-Toxic | 22.5 | – |
| CCN1C[C@]2(COC(=O)c3ccccc3NC(=O)c3ccccc3NC(=O)CCCCl)CC[C@H](OC)C34C1C(C[C@@H]32)[C@@]1(O)C[C@H](OC)C2C[C@@H]4[C@@H]1[C@H]2O | Non-Toxic | 15.6 | – |
| CCN1C[C@]2(COC(=O)c3ccccc3NC(=O)c3ccccc3NC(=O)C(C)(C)O)CC[C@H](OC)C34C1C(C[C@@H]32)[C@@]1(O)C[C@H](OC)C2C[C@@H]4[C@@H]1[C@H]2O | Non-Toxic | 77.4 | Activity (SH-SY5Y [3]): Active; viability at 50 µM (SH-SY5Y [4]): 89.2%; Activity (SH-SY5Y [5]): Active; Activity (SH-SY5Y [6]): Active; Activity (SH-SY5Y [7]): Active; Activity (SH-SY5Y [8]): Active; inhibition (SH-SY5Y [9]): Active; Activity (SH-SY5Y [10]): Active; Activity (SH-SY5Y [11]): Active; Activity (SH-SY5Y [12]): Active |
| CCCCC(=O)Nc1ccccc1C(=O)Nc1ccccc1C(=O)OC[C@@]12CC[C@H](OC)C34C(C(C[C@@H]31)[C@@]1(O)C[C@H](OC)C3C[C@@H]4[C@@H]1[C@H]3OC(=O)c1ccccc1NC(=O)c1ccccc1NC(=O)CCCC)N(CC)C2 | Non-Toxic | 33 | – |
